{"source": "patent US20050032863A1", "about": "“Method of treating or preventing central nervous system disorders with compounds having selectivity for the alpha 3 subunit of the benzodiazepine receptor” (priority 2003, published 2005)", "key": {"[1]": {"biological_target": "T1, recombinant rat α4β2γ2 GABAA receptors (Rattus norvegicus, UniProt P28471)", "T1 construct": "expressed in transfected cells; host or cells: HEK 293", "T1 sequence (P28471 36-552)": "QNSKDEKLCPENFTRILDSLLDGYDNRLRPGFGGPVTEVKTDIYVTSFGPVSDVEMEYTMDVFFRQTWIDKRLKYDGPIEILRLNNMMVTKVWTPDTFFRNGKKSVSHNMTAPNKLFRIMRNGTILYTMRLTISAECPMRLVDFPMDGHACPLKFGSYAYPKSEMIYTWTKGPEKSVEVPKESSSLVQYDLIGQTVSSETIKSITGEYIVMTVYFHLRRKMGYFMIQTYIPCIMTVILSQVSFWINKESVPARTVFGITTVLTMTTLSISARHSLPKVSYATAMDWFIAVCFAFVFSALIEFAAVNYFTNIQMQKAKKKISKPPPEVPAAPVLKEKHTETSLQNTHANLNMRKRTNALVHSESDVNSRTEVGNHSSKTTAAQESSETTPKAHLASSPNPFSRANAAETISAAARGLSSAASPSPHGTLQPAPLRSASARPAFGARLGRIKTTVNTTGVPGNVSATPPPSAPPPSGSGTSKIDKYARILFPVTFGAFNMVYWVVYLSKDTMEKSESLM", "experiment": "Whole-cell patch-clamp, modulation of GABA (EC20)-induced currents in transfected HEK 293 cells, α4β2γ2", "type": "cell-based", "method": "For electrophysiological recording HEK-293 cells were passaged and replated on 12-mm glass coverslips located in 9.6-cm plastic dishes filled with 10 ml of Minimum Essential Medium (MEM, Gibco) supplemented with 158 mg/l sodium bicarbonate, 2 mM glutamine (Gibco), 100 U/ml penicillin-streptomycin (Gibco), and 10% foetal calf serum (Gibco). Cultures were maintained at 37° C. in a humidified […]/5% CO2 atmosphere for 2-3 days.\nTransfection with recombinant rat GABAA receptors was carried out as described in detail (Korpi and Lüddens, 1993, Lüddens and Korpi, 1995b). Briefly, HEK 293 cells were transfected in triple combinations using the phosphate precipitation method with rat GABAA receptor cDNAs in eukaryotic expression vectors (Pritchett, 1990) for the α, β and γ subunits. For optimal receptor expression, final concentrations (μg vector DNA per 9.6 cm tissue culture plate) were: α1, 2; α2 4.8; α3, 1.2; α4, 10; α5, 0.8; β2, 0.4; and γ2S, 0.3. The γ2S variant is abbreviated γ2 in the remainder of the text. To identify transfected cells all subunit combinations were co-transfected with 1 μg per plate of pNI-EGFP.\nTwo days after transfection single coverslips containing HEK 293 cells were placed in a recording chamber mounted on the movable stage of a fluorescence microscope (Olympus IX70) and perfused with a defined saline solution containing (in mM): 130 NaCl, 5.4 KCl, 2 CaCl2, 2 MgSO4, 10 glucose, 5 sucrose, and 10 HEPES (free acid), pH adjusted to 7.35 with about 35 mM NaOH. Transfected cells were identified by their green fluorescence due to the expression of the pNI-EGFP vector and ligand-mediated membrane currents of these cells were studied in the whole-cell configuration of the patch-clamp technique (Hamil et al., 1981). […]\nSeal resistances >1 GΩ were routinely obtained by applying gentle suction to the pipettes. Membrane rupture was monitored electrically as an increase in capacity. […]\nIn all cells recorded the presence of the γ2 subunit in the heteropentamere was monitored by the application of 1 μM zolpidem plus the EC20 of GABA before testing the experimental drugs. […]"}, "male Wistar rats": {"test_system": "male Wistar rats", "experiment": "Rat forced swim test", "type": "in vivo", "method": "All animals were treated with verum or vehicle three times: shortly after the habituation session (23 h), 5 and 1 h prior to testing. All drugs were administered orally with an application volume of 1 ml/kg.\nThe animals were tested in a glass tank (23×30 cm, height 40 cm) filled to a depth of 28 cm with water at 22° C. (the animals could not touch the bottom). The glass tank was illuminated indirectly and was surrounded by dark brown shading walls (distance from the tank 20 cm) to prevent the view on the experimenter. The experiments were performed between 14:00 and 17:00 hours and the method was in general performed as described (Porsolt et al., 1979; Lucki, 1997).\nOn the first experimental day, rats were gently placed in the water for a 15 min period of habituation. On removal from the water, they were placed in a standard plexiglass box, the floor covered with paper towels, under an infrared heater for 30 min to dry. The next day, they were once more placed gently in the glass tank and observed for 5 min. The behaviour of the animals was video-taped.\nFollowing the experiment the video tapes were analysed manually and the duration of the following behaviours was recorded: Immobility: floating and making only those movements necessary to keep the nose above the water. […] Climbing: when rats strongly move their forepaws in and out of the water, usually against the walls."}, "[2]": {"test_system": "female Wistar rats, MK-801-induced stereotypies, hyperactivity and ataxia", "experiment": "MK-801-induced behaviour, rat model of psychosis (Example 1)", "type": "in vivo", "details": "MK-801 0.2 mg/kg i.p.", "method": "The behaviour induced by the NMDA antagonist MK-801 is generally accepted as a rat model of psychosis. MK-801 induces stereotypies, hyperactivity and ataxia in rats after intraperitoneal administration.\nLocomotor activity of the rats is recorded by the MotiTest Apparatus (TSE, Bad Homburg, Germany). The test area consisted of a squared arena ([…] with protective plexiglass walls (20 cm of height) where rats could freely move. Horizontal movements were recorded by 32 infrared photocells arranged along the bottom of each wall of the arena. Vertical movements (rearings) were recorded by a horizontal row of 32 infrared photocells 12 cm above the floor. The following parameters are measured by the computer program “ActiMot” (TSE, Bad Homburg, Germany): • active time [s] and total distance travelled [m]\nStereotypies, divided into stereotyped sniffing and other stereotypies, and ataxia are scored by the experimenter every five minutes for one hour (12 intervals) according to the method described by Andiné et al. (1999). The scores of the 12 intervals are added for each parameter.\nThe day of experiment the female rats are placed in the laboratory and receive the test compound, the reference substance or vehicle at the appropriate time prior to test. MK-801 0.2 mg/kg is intraperitoneally administered 10 minutes prior to test.\nAt the beginning of the test the rats are placed in the centre of the squared arena of the MotiTest apparatus. Behaviour of the rats is recorded for one hour. After each run animals are removed and the boxes thoroughly cleaned and dried."}, "[3]": {"details": "10 and 30 mg/kg p.o., 23, 5 and 1 h prior to testing"}, "[4]": {"details": "30 mg/kg p.o. 1 h prior to test"}}, "note": "“Also recorded” adds a separate entry of the source.", "data": [{"compound": "O=C1N=C(N2CCCCC2)CN1c1ccc(Cl)cc1", "note": "[ELB139, 1-(4-chlorophenyl)-4-piperidinoimidazolin-2-one]", "values": [{"measurement": "modulation of GABA-induced currents (in words)", "setting": "[1]; α4-containing receptors, diazepam up to 1 μM, ELB139 at all concentrations tested", "result": "unaffected; also recorded: not active"}, {"measurement": "EC50", "setting": "[1]; α4β2γ2, applied with approximate GABA EC20, read-out: EC50 (ELB139)", "result": "> 30", "unit": "µM"}, {"measurement": "activity following the return to the homecage (subjective observation)", "setting": "male Wistar rats; 30 mg/kg p.o.", "result": "moderate hypoactivity"}, {"measurement": "climbing time", "setting": "male Wistar rats; 30 mg/kg p.o.", "result": "slight but not significant decrease"}, {"measurement": "duration of swimming", "setting": "male Wistar rats; 30 mg/kg p.o., 23, 5 and 1 h prior to testing", "result": "increased"}, {"measurement": "tolerability", "setting": "male Wistar rats; 10 and 30 mg/kg p.o.", "result": "well tolerated"}, {"measurement": "climbing behaviour", "setting": "male Wistar rats; [3]", "result": "not changed"}, {"measurement": "time spent immobile", "setting": "male Wistar rats; [3]", "result": "had no effect"}, {"measurement": "MK-801-induced ataxia", "setting": "[2]; [4]", "result": "significantly reversed"}, {"measurement": "MK-801-induced other stereotypies", "setting": "[2]; [4]", "result": "significantly reversed"}, {"measurement": "MK-801-induced stereotyped sniffing", "setting": "[2]; [4]", "result": "significantly reversed"}, {"measurement": "MK-801-stimulated activity", "setting": "[2]; [4]", "result": "did not reduce"}, {"measurement": "total distance travelled increased by MK-801", "setting": "[2]; [4]", "result": "distinctly reduced"}, {"measurement": "all parameters induced by MK-801", "setting": "[2]; 60 mg/kg p.o. 1 h prior to test", "result": "significantly reduced all parameters"}]}]}
